Measured values published in patent US8691865B2 (AbbVie Inc., priority 2008, dated 2014).
Like-named read-outs stand apart in the source and are kept apart here.

Biological target: human Cav2.2 (Homo sapiens, UniProt Q00975)
Experiment: Assessment of calcium channel activity using FLIPR (Ca2+ influx in IMR32 cells)
Format: cell-based
Method in brief: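 IC50 values derive from nonlinear sigmoidal fitting of percent inhibition, relative to inhibitor-free activity, of Ca2+ influx read by FLIPR. Cells were IMR32 human neuroblastoma, plated at 1−1.2×10^5 per well and grown 48 h at 37 °C.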

[1] = read-out: IC50 (μM) or percent inhibition (* indicates 3 minute incubation, otherwise 60 minute), IC50, 60 minute pre-incubation with compound, IMR32 cells, 80 mM KCl depolarization

Chain of human Cav2.2 (Q00975 whole entry): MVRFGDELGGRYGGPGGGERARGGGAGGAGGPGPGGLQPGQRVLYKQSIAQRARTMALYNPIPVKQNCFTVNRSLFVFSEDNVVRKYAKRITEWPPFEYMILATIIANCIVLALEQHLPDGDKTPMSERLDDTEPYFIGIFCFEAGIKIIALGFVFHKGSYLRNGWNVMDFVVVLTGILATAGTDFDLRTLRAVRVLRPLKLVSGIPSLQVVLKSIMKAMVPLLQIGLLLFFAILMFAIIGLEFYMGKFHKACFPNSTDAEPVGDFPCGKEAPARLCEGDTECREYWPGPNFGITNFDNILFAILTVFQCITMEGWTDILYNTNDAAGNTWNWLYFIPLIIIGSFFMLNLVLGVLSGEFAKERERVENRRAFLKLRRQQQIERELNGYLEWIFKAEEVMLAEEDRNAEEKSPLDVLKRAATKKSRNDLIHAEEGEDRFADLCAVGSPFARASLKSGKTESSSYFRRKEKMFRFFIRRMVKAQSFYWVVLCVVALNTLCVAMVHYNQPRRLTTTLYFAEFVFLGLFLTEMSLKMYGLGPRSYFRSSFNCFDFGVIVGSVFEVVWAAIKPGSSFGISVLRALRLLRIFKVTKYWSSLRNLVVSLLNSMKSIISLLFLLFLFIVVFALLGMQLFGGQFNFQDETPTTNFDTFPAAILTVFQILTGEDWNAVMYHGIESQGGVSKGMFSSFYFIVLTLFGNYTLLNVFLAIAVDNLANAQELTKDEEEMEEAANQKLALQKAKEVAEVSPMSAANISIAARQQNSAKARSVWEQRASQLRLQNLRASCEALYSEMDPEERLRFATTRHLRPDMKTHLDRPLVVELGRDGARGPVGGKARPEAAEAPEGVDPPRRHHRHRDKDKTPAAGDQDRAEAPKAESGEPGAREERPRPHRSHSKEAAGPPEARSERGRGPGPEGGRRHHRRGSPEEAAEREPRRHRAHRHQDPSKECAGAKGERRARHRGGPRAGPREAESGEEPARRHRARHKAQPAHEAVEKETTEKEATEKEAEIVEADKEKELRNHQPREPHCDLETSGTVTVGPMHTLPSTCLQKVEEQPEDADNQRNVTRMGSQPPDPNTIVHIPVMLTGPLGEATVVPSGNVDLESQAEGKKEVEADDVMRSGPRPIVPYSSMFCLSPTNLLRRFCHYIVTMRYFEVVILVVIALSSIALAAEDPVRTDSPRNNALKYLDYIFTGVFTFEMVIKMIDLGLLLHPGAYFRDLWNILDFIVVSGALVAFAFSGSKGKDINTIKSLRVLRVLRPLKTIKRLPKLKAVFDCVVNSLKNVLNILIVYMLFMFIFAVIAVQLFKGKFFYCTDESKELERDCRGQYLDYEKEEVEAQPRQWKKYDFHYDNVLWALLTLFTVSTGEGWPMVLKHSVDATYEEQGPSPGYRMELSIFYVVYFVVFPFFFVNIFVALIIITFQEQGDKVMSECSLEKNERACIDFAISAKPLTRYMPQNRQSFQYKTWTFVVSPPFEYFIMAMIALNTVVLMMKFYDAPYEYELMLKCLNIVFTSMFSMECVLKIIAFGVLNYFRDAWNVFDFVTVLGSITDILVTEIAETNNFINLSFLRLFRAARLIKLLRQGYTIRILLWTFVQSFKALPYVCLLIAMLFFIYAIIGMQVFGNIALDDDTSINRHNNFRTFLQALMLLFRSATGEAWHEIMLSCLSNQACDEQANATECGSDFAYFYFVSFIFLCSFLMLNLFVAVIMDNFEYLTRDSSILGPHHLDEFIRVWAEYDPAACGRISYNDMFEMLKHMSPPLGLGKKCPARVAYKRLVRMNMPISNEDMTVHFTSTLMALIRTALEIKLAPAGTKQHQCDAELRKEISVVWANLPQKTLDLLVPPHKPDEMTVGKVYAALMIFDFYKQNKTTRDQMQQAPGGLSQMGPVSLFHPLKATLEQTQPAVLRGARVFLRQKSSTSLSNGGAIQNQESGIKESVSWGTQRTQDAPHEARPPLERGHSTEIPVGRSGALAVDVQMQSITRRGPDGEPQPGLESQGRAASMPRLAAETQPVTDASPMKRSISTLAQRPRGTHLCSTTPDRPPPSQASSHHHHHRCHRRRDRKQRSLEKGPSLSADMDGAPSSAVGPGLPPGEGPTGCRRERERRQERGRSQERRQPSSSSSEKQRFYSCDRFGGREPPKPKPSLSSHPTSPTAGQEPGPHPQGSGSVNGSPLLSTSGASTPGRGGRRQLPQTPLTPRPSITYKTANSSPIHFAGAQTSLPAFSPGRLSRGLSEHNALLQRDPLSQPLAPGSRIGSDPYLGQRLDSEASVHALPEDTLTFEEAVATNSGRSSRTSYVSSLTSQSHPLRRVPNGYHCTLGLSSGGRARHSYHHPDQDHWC
Chain of human Cav2.2 (P54289 25-956 partner limits assumed): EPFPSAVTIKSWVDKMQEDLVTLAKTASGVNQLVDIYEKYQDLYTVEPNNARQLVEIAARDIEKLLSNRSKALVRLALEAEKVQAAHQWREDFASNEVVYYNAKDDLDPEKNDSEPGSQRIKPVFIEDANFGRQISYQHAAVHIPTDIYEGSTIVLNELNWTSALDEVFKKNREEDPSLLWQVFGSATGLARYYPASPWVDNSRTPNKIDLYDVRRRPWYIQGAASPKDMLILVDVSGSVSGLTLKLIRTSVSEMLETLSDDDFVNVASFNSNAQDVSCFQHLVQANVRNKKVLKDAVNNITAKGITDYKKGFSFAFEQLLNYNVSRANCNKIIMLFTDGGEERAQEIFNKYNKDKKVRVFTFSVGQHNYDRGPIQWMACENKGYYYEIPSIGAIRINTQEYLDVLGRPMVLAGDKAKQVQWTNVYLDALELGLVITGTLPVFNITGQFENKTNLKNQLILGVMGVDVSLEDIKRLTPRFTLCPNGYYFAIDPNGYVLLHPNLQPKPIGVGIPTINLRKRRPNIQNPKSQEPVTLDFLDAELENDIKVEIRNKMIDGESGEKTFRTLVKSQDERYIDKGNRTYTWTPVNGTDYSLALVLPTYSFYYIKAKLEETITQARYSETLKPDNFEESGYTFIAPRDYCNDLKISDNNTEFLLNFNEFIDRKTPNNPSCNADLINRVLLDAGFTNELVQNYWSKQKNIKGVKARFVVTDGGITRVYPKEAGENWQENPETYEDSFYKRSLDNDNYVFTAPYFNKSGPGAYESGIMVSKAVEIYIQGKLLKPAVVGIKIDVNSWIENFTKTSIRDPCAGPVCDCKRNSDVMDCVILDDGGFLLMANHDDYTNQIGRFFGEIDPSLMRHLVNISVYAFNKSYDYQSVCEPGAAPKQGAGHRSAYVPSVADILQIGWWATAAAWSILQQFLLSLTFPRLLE
Chain of human Cav2.2 (P54289 957-1103 partner limits assumed): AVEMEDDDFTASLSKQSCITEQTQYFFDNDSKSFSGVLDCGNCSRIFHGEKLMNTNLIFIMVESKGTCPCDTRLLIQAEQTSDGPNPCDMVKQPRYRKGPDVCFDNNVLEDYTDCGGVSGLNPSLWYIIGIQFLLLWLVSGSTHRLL
Chain of human Cav2.2 (P54284 whole entry partner): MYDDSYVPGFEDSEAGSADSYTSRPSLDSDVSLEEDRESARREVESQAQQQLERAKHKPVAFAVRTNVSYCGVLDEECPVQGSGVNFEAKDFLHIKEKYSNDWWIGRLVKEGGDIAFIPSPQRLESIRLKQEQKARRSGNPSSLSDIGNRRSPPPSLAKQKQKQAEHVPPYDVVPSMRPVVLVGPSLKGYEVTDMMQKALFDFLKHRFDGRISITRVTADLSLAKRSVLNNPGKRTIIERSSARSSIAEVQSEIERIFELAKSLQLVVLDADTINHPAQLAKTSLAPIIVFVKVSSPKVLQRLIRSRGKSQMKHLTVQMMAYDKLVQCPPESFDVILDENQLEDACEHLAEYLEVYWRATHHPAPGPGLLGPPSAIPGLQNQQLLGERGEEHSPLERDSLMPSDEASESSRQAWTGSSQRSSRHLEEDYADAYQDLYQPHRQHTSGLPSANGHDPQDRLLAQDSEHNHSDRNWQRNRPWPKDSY

| IC50 [µM] | IC50 [1] [µM] | Compound |
| --- | --- | --- |
| > 30 | – | CCC[C@H](NC)C(=O)N[C@H]1CC[C@@H]2CN(S(=O)(=O)c3cccnc3)C[C@@H]21 [Example 535, N^2-methyl-N^1-[(3aR,4S,6aS)-2-(pyridin-3-ylsulfonyl)octahydrocyclopenta[c]pyrrol-4-yl]-L-norvalinamide] |
| 6.78 | – | CNC(C)(C)C(=O)N[C@H]1CC[C@@H]2CN(c3ccc(C(F)(F)F)cc3)C[C@@H]21 [Example 754, N^2,2-dimethyl-N-{(3aR,4S,6aS)-2-[4-(trifluoromethyl)phenyl]octahydrocyclopenta[c]pyrrol-4-yl}alaninamide] |
| > 30 | – | CC(C)(C)C[C@H](N)C(=O)N[C@H]1CC[C@@H]2CN(C(=O)[C@@H](N)Cc3ccccc3)C[C@@H]21 [Example 465, 4-methyl-N^1-[(3aR,4S,6aS)-2-L-phenylalanyloctahydrocyclopenta[c]pyrrol-4-yl]-L-leucinamide] |
| 0.64 | – | O=C(N[C@H]1CC[C@H]2CN(Cc3cccc(C(F)(F)F)c3)C[C@H]21)C(c1ccc(F)cc1)c1ccc(F)cc1 (relative stereo) [Example 136, 2,2-bis(4-fluorophenyl)-N-{(3aS*,4S*,6aR*)-2-[3-(trifluoromethyl)benzyl]octahydrocyclopenta[c]pyrrol-4-yl}acetamide] |
| 1.71 | – | FC(F)(F)c1cccc(N2C[C@H]3CC[C@H](NCc4nc(-c5ccccc5)c[nH]4)[C@H]3C2)n1 [Example 746, (3aR,4S,6aS)-N-[(4-phenyl-1H-imidazol-2-yl)methyl]-2-[6-(trifluoromethyl)pyridin-2-yl]octahydrocyclopenta[c]pyrrol-4-amine] |
| 1.88 | – | CN[C@@H](CC(C)(C)C)C(=O)N[C@H]1CC[C@@H]2CN(c3ccc(C(F)(F)F)cn3)C[C@@H]21 [Example 602, N^2,4-dimethyl-N-{(3aR,4S,6aS)-2-[5-(trifluoromethyl)pyridin-2-yl]octahydrocyclopenta[c]pyrrol-4-yl}-L-leucinamide] |
| – | 1.01 | O=S(=O)(N[C@@H]1CC[C@H]2CN(Cc3cccc(C(F)(F)F)c3)C[C@H]21)c1cccc(C(F)(F)F)c1 [Example 189, 3-(trifluoromethyl)-N-{(3aS,4R,6aR)-2-[3-(trifluoromethyl)benzyl]octahydrocyclopenta[c]pyrrol-4-yl}benzenesulfonamide] |
| 0.58 | – | FC(F)(F)c1cccc(N2C[C@H]3CC[C@H](NCc4cc5cccnc5s4)[C@H]3C2)n1 [Example 727, (3aR,4S,6aS)-N-(thieno[2,3-b]pyridin-2-ylmethyl)-2-[6-(trifluoromethyl)pyridin-2-yl]octahydrocyclopenta[c]pyrrol-4-amine] |
| 0.4 | – | CC(C)C[C@H](O)C(=O)N[C@H]1CC[C@@H]2CN(c3cccc(C(F)(F)F)n3)C[C@@H]21 [Example 567, (2S)-2-hydroxy-4-methyl-N-{(3aR,4S,6aS)-2-[6-(trifluoromethyl)pyridin-2-yl]octahydrocyclopenta[c]pyrrol-4-yl}pentanamide] |
| – | 3.78 | CN[C@H](CC(C)C)C(=O)N[C@H]1CC[C@H]2CN(Cc3cccc(C(F)(F)F)c3)C[C@H]21 (relative stereo) [Example 160, N^2-methyl-N^1-{(3aS*,4S*,6aR*)-2-[3-(trifluoromethyl)benzyl]octahydrocyclopenta[c]pyrrol-4-yl}-D-leucinamide] |
| > 30 | – | CCC[C@H](NC(C)C)C(=O)N[C@H]1CC[C@@H]2CN(Cc3ccccc3)C[C@@H]21 [Example 494, N^1-[(3aR,4S,6aS)-2-benzyloctahydrocyclopenta[c]pyrrol-4-yl]-N^2-isopropyl-L-norvalinamide] |
| 0.61 | – | O=C(N[C@H]1CC[C@@H]2CN(c3cccc(C(F)(F)F)n3)C[C@@H]21)c1cc2ccccc2[nH]1 [Example 570, N-{(3aR,4S,6aS)-2-[6-(trifluoromethyl)pyridin-2-yl]octahydrocyclopenta[c]pyrrol-4-yl}-1H-indole-2-carboxamide] |
| – | 2.68 | CC(C)C(C(=O)N[C@@H]1CC[C@H]2CN(Cc3ccccc3)C[C@H]21)c1ccccc1 (stereo partly drawn) [Example 18, N-[(3aS,4R,6aR)-2-benzyloctahydrocyclopenta[c]pyrrol-4-yl]-3-methyl-2-phenylbutanamide] |
| 0.94 | – | Cn1nccc1CN[C@H]1CC[C@@H]2CN(c3cccc(C(F)(F)F)n3)C[C@@H]21 [Example 725, (3aR,4S,6aS)-N-[(1-methyl-1H-pyrazol-5-yl)methyl]-2-[6-(trifluoromethyl)pyridin-2-yl]octahydrocyclopenta[c]pyrrol-4-amine] |
| 1.66 | – | FC(F)(F)c1cccc(N2C[C@H]3CC[C@H](NCc4c[nH]c5ccc(Cl)cc45)[C@H]3C2)n1 [Example 680, (3aR,4S,6aS)-N-[(5-chloro-1H-indol-3-yl)methyl]-2-[6-(trifluoromethyl)pyridin-2-yl]octahydrocyclopenta[c]pyrrol-4-amine] |
| 0.69 | – | Fc1ccc2[nH]cc(CN[C@H]3CC[C@@H]4CN(c5cccc(C(F)(F)F)n5)C[C@@H]43)c2c1 [Example 678, (3aR,4S,6aS)-N-[(5-fluoro-1H-indol-3-yl)methyl]-2-[6-(trifluoromethyl)pyridin-2-yl]octahydrocyclopenta[c]pyrrol-4-amine] |

| IC50 [µM] | IC50 [1] [µM] | Compound |
| --- | --- | --- |
| – | 0.62 | CC(C)C[C@@H](NC(=O)OC(C)(C)C)C(=O)N[C@@H]1CC[C@H]2CN(Cc3cccc(C(F)(F)F)c3)C[C@H]21 (relative stereo) [Example 149, N^2-(tert-butyloxycarbonyl)-N^1-{(3aS*,4R*,6aR*)-2-[3-(trifluoromethyl)benzyl]octahydrocyclopenta[c]pyrrol-4-yl}-D-leucinamide] |
| 10.6 | – | CCC[C@H](NC)C(=O)N[C@H]1CC[C@@H]2CN(c3ccc(OC(F)(F)F)cc3)C[C@@H]21 [Example 719, N^2-methyl-N-{(3aR,4S,6aS)-2-[4-(trifluoromethoxy)phenyl]octahydrocyclopenta[c]pyrrol-4-yl}-L-norvalinamide] |
| 1.69 | – | CC(C)(C)C[C@@H](C(=O)N[C@H]1CC[C@@H]2CN(S(=O)(=O)c3ccc(C(F)(F)F)cc3)C[C@@H]21)N(C1CC1)C1CC1 [Example 500, N^2,N^2-dicyclopropyl-4-methyl-N^1-((3aR,4S,6aS)-2-{[4-(trifluoromethyl)phenyl]sulfonyl}octahydrocyclopenta[c]pyrrol-4-yl)-L-leucinamide] |
| – | 3.32 | CC(C)C[C@@H](C(=O)N[C@H]1CC[C@H]2CN(Cc3ccccc3)C[C@H]21)N(C)C(=O)OC(C)(C)C [Example 239, tert-butyl(S)-1-((3aS,4S,6aR)-2-benzyloctahydrocyclopenta[c]pyrrol-4-ylamino)-4-methyl-1-oxopentan-2-yl(methyl)carbamate] |
| 1.25 | – | CC(C)C[C@H](NCC(C)(C)C)C(=O)N[C@H]1CC[C@@H]2CN(S(=O)(=O)c3ccc(F)cc3)C[C@@H]21 [Example 261, N^1-{(3aR,4S,6aS)-2-[(4-fluorophenyl)sulfonyl]octahydrocyclopenta[c]pyrrol-4-yl}-N^2-neopentyl-L-leucinamide] |
| – | 1.33 | O=C(N[C@@H]1CC[C@H]2CN(Cc3cccc(C(F)(F)F)c3)C[C@H]21)C(O)(C1CCCCC1)C1CCCCC1 [Example 154, 2,2-dicyclohexyl-2-hydroxy-N-{(3aS,4R,6aR)-2-[3-(trifluoromethyl)benzyl]octahydrocyclopenta[c]pyrrol-4-yl}acetamide] |
| 2.99 | – | FC(F)(F)c1cccc(N2C[C@H]3CC[C@H](NCc4cc5cc(Cl)ccc5[nH]4)[C@H]3C2)n1 [Example 665, (3aR,4S,6aS)-N-[(5-chloro-1H-indol-2-yl)methyl]-2-[6-(trifluoromethyl)pyridin-2-yl]octahydrocyclopenta[c]pyrrol-4-amine] |
| – | 0.29 | O=C(N[C@H]1CC[C@H]2CN(Cc3ccc(F)c(C(F)(F)F)c3)C[C@H]21)C(C1CCCCC1)C1CCCCC1 [Example 57, 2,2-dicyclohexyl-N-{(3aS,4S,6aR)-2-[4-fluoro-3-(trifluoromethyl)benzyl]octahydrocyclopenta[c]pyrrol-4-yl}acetamide] |
| – | 1.51 | O=C(N[C@H]1CC[C@@H]2CN(Cc3ccccc3)C[C@@H]21)C(c1ccccc1)C1CCCC1 (stereo partly drawn) [Example 34, N-[(3aR,4S,6aS)-2-benzyloctahydrocyclopenta[c]pyrrol-4-yl]-2-cyclopentyl-2-phenylacetamide] |
| 1.69 | – | Cc1c(CN[C@H]2CC[C@@H]3CN(c4cccc(C(F)(F)F)n4)C[C@@H]32)[nH]c2ccccc12 [Example 664, (3aR,4S,6aS)-N-[(3-methyl-1H-indol-2-yl)methyl]-2-[6-(trifluoromethyl)pyridin-2-yl]octahydrocyclopenta[c]pyrrol-4-amine] |
| 0.5 | – | CC(C)(C)CCN[C@H]1CC[C@@H]2CN(c3cccc(C(F)(F)F)n3)C[C@@H]21 [Example 611, (3aR,4S,6aS)-N-(3,3-dimethylbutyl)-2-[6-(trifluoromethyl)pyridin-2-yl]octahydrocyclopenta[c]pyrrol-4-amine] |
| – | 14.1 | CC(C)[C@@H](CC(=O)N[C@@H]1CC[C@H]2CN(S(=O)(=O)c3cccc(C(F)(F)F)c3)C[C@H]21)NC(=O)OC(C)(C)C [Example 267, tert-butyl(1R)-1-isopropyl-3-oxo-3-[((3aS,4R,6aR)-2-{[3-(trifluoromethyl)phenyl]sulfonyl}octahydrocyclopenta[c]pyrrol-4-yl)amino]propylcarbamate] |
| – | 1.99 | CC(C)C(C(=O)N(C)[C@@H]1CC[C@H]2CN(Cc3ccccc3)C[C@H]21)c1ccccc1 (relative stereo) [Example 215, N-[(3aS*,4R*,6aR*)-2-benzyloctahydrocyclopenta[c]pyrrol-4-yl]-N,3-dimethyl-2-phenylbutanamide] |
| 0.51 | – | O=C(N[C@H]1CC[C@H]2CN(Cc3cccc(OC(F)(F)F)c3)C[C@H]21)C(C1CCCCC1)C1CCCCC1 [Example 63, 2,2-dicyclohexyl-N-{(3aS,4S,6aR)-2-[3-(trifluoromethoxy)benzyl]octahydrocyclopenta[c]pyrrol-4-yl}acetamide] |
| – | 2.33 | COc1ccccc1CN1C[C@H]2CC[C@H](NC(=O)C(c3ccccc3)C(C)C)[C@H]2C1 (stereo partly drawn) [Example 94, N-[(3aR,4S,6aS)-2-(2-methoxybenzyl)octahydrocyclopenta[c]pyrrol-4-yl]-3-methyl-2-phenylbutanamide] |
